Where “and” joins values, the source holds several entries; their conditions need not be identical. Equal values may be shown once. Read-outs that look alike come from different tables or passages of the source.
Columns and labels:
CB2 receptor = target: T1, CB2 receptor (Rattus norvegicus, UniProt Q9QZN9); assay: 3H-WIN 55,212-2 binding displacement on RBL-2H3 cell membranes; settings: for IC50: RBL-2H3 cell membranes, 1% DMSO, means ± SEM
T1 construct: 30 µg membrane proteins prepared in item a); endogenous in cells; host or cells: RBL-2H3 cells (plasma membrane preparation)
T1 sequence (Q9QZN9 1-360): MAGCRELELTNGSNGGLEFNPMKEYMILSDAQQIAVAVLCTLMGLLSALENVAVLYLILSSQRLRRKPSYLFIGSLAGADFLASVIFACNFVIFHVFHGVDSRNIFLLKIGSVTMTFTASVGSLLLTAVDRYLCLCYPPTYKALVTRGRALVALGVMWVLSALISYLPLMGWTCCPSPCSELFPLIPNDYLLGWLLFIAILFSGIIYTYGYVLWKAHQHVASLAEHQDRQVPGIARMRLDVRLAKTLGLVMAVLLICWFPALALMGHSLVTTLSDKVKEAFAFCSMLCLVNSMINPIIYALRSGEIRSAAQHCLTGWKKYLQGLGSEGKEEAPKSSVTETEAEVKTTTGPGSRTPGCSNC

RBL-2H3 cells = assay: 3H-serotonin release induced by ADNP/DNP.HSA immunogenic stimulation; assay type: cell-based, rat; settings: for effect on serotonin release (RBL cells immunogenic activation): statement in words on Table 3; for inhibition at 100 µM / EC50 / inhibition at 60 µM / inhibition at 10 µM: Rattus norvegicus; for inhibition at 10 µM: RBL-2H3, 10µM, read-out: 3H-serotonin net release inhibition (%)
[1] = solubility in organic solvents; assay type: physicochemical; settings: organic solvent or mixture, read-out: solubility in org. sol.
[2] = competitor 10 µM, amides in 0.1% DMSO, Anandamide and Nabilone in 0.1% ethanol
[3] = RBL-2H3, concentration inhibiting by 50% the net release of 3H serotonin, 0.2% DMSO, 15 minutes release period, means ± SEM, read-out: EC50
[4] = RBL-2H3, concentration inhibiting by 50% the net release of 3H serotonin, 1% DMSO, 15 minutes release period, means ± SEM, read-out: EC50

SMILES	water solubility (water solubility)	solubility ([1]; in DMSO)	solubility ([1]; in ethanol)	inhibition at 100 µM (RBL-2H3 cells; RBL-2H3, DMSO 0.2%, 100µM)	inhibition at 100 µM (RBL-2H3 cells; RBL-2H3, DMSO 1%, 100µM)	further results
C=C(C)[C@@H]1CCC(C)=C[C@H]1c1c(O)cc(CCCCC)cc1O [Cannabidiol, reference compound]	–	–	–	–	–	IC50 (CB2 receptor; IC50 (nM)): > 1000 nM
CCCCCCCCCCCCCCCC(=O)N[C@@H](CO)C(=O)O [Example 1, N-palmitoyl-L-serine]	slightly soluble	> 10000 µg/mL	> 10000 µg/mL	–	–	IC50 (CB2 receptor; read-out: IC50): 0.04 nM and 0.05 nM; Displacement (%) (CB2 receptor; [2]): 100%; 3H-serotonin net release (%) (RBL-2H3 cells; 100µM, 0.1% DMSO and 0.1% ethanol): 0%; effect on serotonin release (RBL cells immunogenic activation) (RBL-2H3 cells): can inhibit the effects induced by mast cell activation
CCCCCCCCCCCC(=O)N[C@@H](CO)C(=O)O [Example 2, N-lauroyl-L-serine]	slightly soluble	> 10000 µg/mL	> 10000 µg/mL	79%	61%	solubility (water solubility; water): > 10000 µg/mL
CCCCCCCC/C=C\CCCCCCCC(=O)N[C@@H](CO)C(=O)O [Example 3, N-oleoyl-L-serine]	slightly soluble	> 10000 µg/mL	–	–	–	–
CCCCCCCCCCCC(=O)N[C@@H](CO)C(=O)OC [Example 5, N-lauroyl-L-serine methylester]	slightly soluble	> 10000 µg/mL	> 10000 µg/mL	–	61%	EC50 (RBL-2H3 cells; [3]): 104 ± 59 µM
CCCCCCCCCCCCCCCC(=O)N[C@@H](CS)C(=O)O [Example 6, N-palmitoyl-L-cysteine]	slightly soluble	> 10000 µg/mL	–	–	91%	inhibition at 60 µM (RBL-2H3 cells; RBL-2H3, DMSO 0.2%): 50%; EC50 (RBL-2H3 cells; [4]): 29 ± 12 µM
CCCCCCCCCCCCCCCC(=O)NCC(=O)O [Example 7, N-palmitoyl-glycine]	slightly soluble	> 10000 µg/mL	–	–	100%	Displacement (%) (CB2 receptor; [2]): 79%; Specific binding (CB2 receptor; [2]): 297; 3H-serotonin net release (%) (RBL-2H3 cells; 10µM, 0.1% DMSO and 0.1% ethanol): 27%; inhibition at 10 µM (RBL-2H3 cells; + anandamide (12.5 µM)): 24%; inhibition at 10 µM (RBL-2H3 cells; -anandamide): 73%; inhibition at 60 µM (RBL-2H3 cells; RBL-2H3, DMSO 0.2%): 85%; EC50 (RBL-2H3 cells; RBL-2H3, inhibition of 3H-serotonin release, +anandamide (12.5 µM), read-out: ED50 (the source's name)): > 100 µM; EC50 (RBL-2H3 cells; RBL-2H3, inhibition of 3H-serotonin release, -anandamide, read-out: ED50 (the source's name)): 4.8 µM; EC50 (RBL-2H3 cells; RBL-2H3, inhibition of serotonin release, 0.1% DMSO and 0.1% ethanol, read-out: ED50 (µm)): 4.8 µM; effect on serotonin release (RBL cells immunogenic activation) (RBL-2H3 cells): can inhibit the effects induced by mast cell activation
CCCCCCCCCCCC(=O)NCC(=O)O [Example 8, N-lauroyl-glycine]	slightly soluble	> 10000 µg/mL	> 10000 µg/mL	93%	100%	EC50 (RBL-2H3 cells; [3]): 10 ± 1.5 µM; EC50 (RBL-2H3 cells; [4]): 7 ± 5 µM; solubility (water solubility; phosphate buffer, pH 7.4, aqueous buffer): > 10000 µg/mL
CCCCCCCCCCCC(=O)NCC(=O)OC [Example 9, N-lauroyl-glycine methylester]	slightly soluble	> 10000 µg/mL	> 10000 µg/mL	55%	–	–
CCCCCCCCCCCCCCCC(=O)NCCC(=O)O [Example 10, N-palmitoyl-β-alanine]	slightly soluble	> 5000 µg/mL	> 5000 µg/mL	47%	–	EC50 (RBL-2H3 cells; [4]): 30 µM
CCCCCCCCCCCCCCCC(=O)NCCCC(=O)O [Example 11, N-palmitoyl-gamma-aminobutyric acid]	slightly soluble	> 5000 µg/mL	> 5000 µg/mL	–	–	EC50 (RBL-2H3 cells; [3]): 26 ± 18 µM
O=C(CCCCCCCC(=O)NC(CO)C(=O)O)NC(CO)C(=O)O (stereo not shown) [Example 12, N,N' -bis-(1-carboxy-2-hydroxyethyl)-nonandiamide]	slightly soluble	> 10000 µg/mL	> 10000 µg/mL	–	–	solubility (water solubility; water): > 10000 µg/mL

— patent publication EP0799188B1, “AMIDES OF MONO AND DICARBOXYLIC ACIDS WITH GLYCOSAMINES, SELECTIVELY ACTIVE ON THE CANNABINOID PERIPHERAL RECEPTOR” (LIFEGROUP S.p.A., priority 1994, dated 1996)
